The test system of experiment [1] is human stomach cancer SGC-7901. The experiment is described as follows: Human stomach cancer SGC-7901 xenograph nude mice. The format is in vivo. Particulars: positive control, 25 mg/kg, once a week, 3 weeks. The protocol: (§1) Experimental animals: Female BALB/cA nude mice, age 35-40 days, weight 18-22 g, provided by Shanghai Silaike Experimental Animal Co. Ltd., certificate number: SOCK (Shanghai) 2007-0005.
(§2) The tumor of xenograph nude mice grew to 100˜300 mm^3. Tumor mice were divided into different groups for drug testing. In the experiment below, there were 12 nude mice in negative control group, and 6 nude mice in the group with tested drug. Tumor diameter was measured three times each week, and mice weight was measured at the same time.
(§3) T/C (relative tumor inhibition rate) % was calculated as below: • (1) tumor volume, TV, calculated as below: TV=½×a×b^2 • A and b are length and width. • (2) relative tumor volume, RTV, calculated as below: RTV=TVt/TV0. • TV0 ? is tumor volume at the beginning of drug use (d0), TVt is tumor volume at later time point. • (3) relative tumor inhibition rate T/C (%), calculate as below:
(§4) [formula] TRTV: treatment group RTV; CRTV: negative control RTV
Peptide SEQ ID No:1 was given through tail vain (IV), at dosing of 1 mg/kg, 0.5 mg/kg, 0.25 mg/kg, 0.125 mg/kg, and 0.0625 mg/kg, 6 times a week. 5-FU was positive control, at dosing of 25 mg/kg, once a week. Negative control was given saline solution. The xenograph nude mice were treated for 3 weeks.

For experiment [2], the system named is Rat CC14 liver damage model. The experiment is described as follows: Rat CC14 liver damage model (chronic liver fibrosis). The format is in vivo, SD rat. Also noted: Liver parameters: unit not given here. Particulars: Gan-li-xin 25 mg/kg iv, once a day for 2 weeks from week 5. The protocol: To evaluate the protective effect of peptide SEQ ID NO:1 on liver damage, we used chronic liver fibrosis model (rat CC14 model) for efficacy evaluation.
Rat CC14 liver damage model
(1) Control group: saline, sc, 2 ml/kg, 10 rats
(2) model group: 40% CC14, sc, 2 ml/kg, 17 rats
(3) Gan-li-xin group: 25 mg/kg, iv, 10 ml/kg, 15 rats
(4) Prevention, high dose group: 50 μg peptide SEQ ID NO:1/kg, iv, 10 ml/kg, 17 rats
(5) Prevention, low dose group: 10 μg peptide SEQ ID NO:1/kg, iv, 10 ml/kg, 17 rats
(6) Treatment, high dose group: 100 μg peptide SEQ ID NO:1/kg, iv, 10 ml/kg, 17 rats
(7) Treatment, high dose group: 20 μg peptide SEQ ID NO:1/kg, iv, 10 ml/kg, 17 rats
Except for control group, inject 40% CC14 subcutaneously twice (Tuesday, and Friday) every week in Group (2) to (6), drug volume (0.2 ml/100 g, the first time 0.5 ml/100 g). CC14 Model construction is 6 weeks. Parallel to the model construction, inject intravenously peptide SEQ ID NO:1 at 50 μg/kg and 10 μg/kg in group (4) and (5), respectively, once a day for 6 weeks. For Group (3), (6), and (7), starting from week 5, inject Gan-li-xin 25 mg/kg, peptide SEQ ID NO:1 at 100 μg/kg and 20 μg/kg, respectively, once a day, continuously for 2 weeks.
All rats were weighed once a week during model construction and drug injection. According to weight, the dose of drugs is adjusted. 24 hours after the last time of CC14 injection, liver weight parameters were examined.
Blood was extracted from femoral artery and serum was separated. The following parameters were examined: serum alanine aminotransferase (ALT), aspartate aminotransferase (AST), Bilirubin (TB), Alkaline phosphatase (ALP), total protein (TP), albumin (ALB), globulin (G), albumin/globulin ratio (A/G), glucose (GLU), total cholesterol (TCH), triglyceride (TG).
Liver homogenate: to examine cholesterol (TCH), triglyceride (TG), alanine aminotransferase (ALT), and aspartate aminotransferase (AST).
[…], dry at 110 C, examine Hydroxyproline (HPA).
Part of the liver is fixed in formalin for histology examination.

Experiment [3] has as its system liver cancer (H22). The experiment is described as follows: Xenograph liver cancer nude mice model (H22). Type of experiment: in vivo. Particulars: H22, positive control, 10 mg/kg. The protocol: as §1, §2, §3, §4
For experiment [4], the system named is human breast cancer MDA-MB-435. The experiment is described as follows: Human breast cancer MDA-MB-435 xenograph nude mice. Particulars: positive control, 20 mg/kg, once a week, 4 weeks. The format is in vivo. The protocol: as §1, §2, §3, §4
Peptide SEQ ID No:1 was given through tail vein (IV), at dosing of 2 mg/kg, 1 mg/kg, 0.5 mg/kg, 6 times a week. Docetaxol was positive control, at dosing of 20 mg/kg, once a week. Negative control was given saline solution. The xenograph nude mice were treated for 4 weeks.

For experiment [5], the system named is human lung cancer A549. The experiment is described as follows: Human lung cancer A549 xenograph nude mice. The format is in vivo. Particulars: positive control, 20 mg/kg, once a week, 3 weeks. The protocol: as §1, §2, §3, §4
Peptide SEQ ID No:1 was given through tail vein (IV), at dosing of 0.5 mg/kg, 0.25 mg/kg, and 0.125 mg/kg, 6 times a week. Docetaxol was positive control, at dosing of 20 mg/kg, once a week. Negative control was given saline solution. The xenograph nude mice were treated for 3 weeks.

As to `O=c1[nH]cc(F)c(=O)[nH]1` [Peptide 5-FU, reference compound], in experiment [1], the “T/C(%) relative tumor inhibition rate” value worked out at 68.71%.
With `CC1(C)[C@@H](O[C@H]2O[C@H](C(=O)O)[C@@H](O)[C@H](O)[C@H]2O[C@@H]2O[C@H](C(=O)O)[C@@H](O)[C@H](O)[C@H]2O)CC[C@]2(C)[C@H]3C(=O)C=C4[C@@H]5C[C@@](C)(C(=O)O)CC[C@]5(C)CC[C@@]4(C)[C@]3(C)CC[C@@H]12.N.N` [Gan-li-xin, Diammonium glycyrrhizinate, reference compound], in experiment [2], the “ALB (albumin), serum” value was found to be 17.9 ± 2.5 g/L; the “ALP (alkaline phosphatase), serum” value was found to be 351.6 ± 134.1 IU/L; the “ALT (alanine aminotransferase), serum” value amounted to 73.6 ± 25 IU/L; the “AST (aspartate aminotransferase), serum” value came out at 253.3 ± 69.3 IU/L. For the same molecule, in experiment [2], the “Bilirubin, serum” value was 3.3 ± 0.6 µmol/L; the “GLU (glucose), serum” value came out at 5.4 ± 0.7 mmol/L; the Liver parameters came out at 4.4 ± 0.6; the Liver weight came out at 11.6 ± 3.5 g. For the same molecule, in experiment [2], the “TCH (total cholesterol), serum” value is 1.7 ± 0.5 mmol/L; the “TG (triglyceride), serum” value is given as 0.7 ± 0.3 mmol/L; the “TP (total protein), serum” value worked out at 64.8 ± 5.4 g/L; the “hydroxyproline amount in rat liver” value is 0.191 ± 0.038 ug/mg wet weight.
For the molecule `CC(=O)O[C@H]1C(=O)[C@@]2(C)[C@H]([C@H](OC(=O)c3ccccc3)[C@]3(O)C[C@H](OC(=O)[C@H](O)[C@@H](NC(=O)c4ccccc4)c4ccccc4)C(C)=C1C3(C)C)[C@]1(OC(C)=O)CO[C@@H]1C[C@@H]2O` [Taxol, reference compound], in experiment [3], the “inhibition rate, tumor” value is roughly 67.8%.
Consider `CC(=O)O[C@@]12CO[C@@H]1C[C@H](O)[C@@]1(C)C(=O)[C@H](O)C3=C(C)[C@@H](OC(=O)[C@H](O)[C@@H](NC(=O)OC(C)(C)C)c4ccccc4)C[C@@](O)([C@@H](OC(=O)c4ccccc4)[C@H]21)C3(C)C` [docetaxel, reference compound], for which the “T/C(%) relative tumor inhibition rate” value in experiment [4] turned out to be 16.51%; in experiment [5], 18.60%.

These data come from patent US8637467B2, “Pharmaceutical being used for treating cancer and fibrosis disease and the composition and uses thereof” (Wuxi MTLH Biotechnology Co., Ltd., priority 2008, dated 2014).
